Series [1] deals with mouse mammary carcinoma 4T1. The experiment in a line: resazurin viability assay, 72 h (Table 1). To be noted: 72h incubation, 156 nM-100 μM. Type of series: cell-based. The text has this:
(§1) In our experiments three different cell lines were used. Cells were purchased from the American Type Culture Collection (ATCC, Manassas, Va., USA). The human breast adenocarcinoma cell line, MCF-7 cells were maintained in Dulbecco's Modified Eagle Medium/Nutrient Mixture F-12 (DMEM/F12) 10% fetal calf serum (FCS, Gibco) and mouse mammary carcinoma 4T1 and human promyelocytic leukemia, HL-60 cells were maintained in Roswell Park Memorial Institute 1640 medium (RPMI-1640) 10% FCS. Media were supplemented with 2 mM GlutaMAX, and 100 U/mL penicillin, 100 μg/mL streptomycin (Life Technologies, Carlsbad, Calif., USA). Cell cultures were maintained at 37° C. in a humidified incubator in an atmosphere of 5% CO2 (Sanyo, Japan).
(§2) For viability assays cells were seeded in 96 well plates (MCF7 and 4T1: 6000, HL60: 120.000 cells/well) and incubated overnight. Compounds were dissolved in dimethyl sulfoxide (DMSO). Cells were treated with an increasing concentration of compounds having the general formula (I.) (156 nM-100 μM). Cell viability was determined after 72h incubation. Resazurin reagent (Sigma-Aldrich) was dissolved in PBS (pH 7.4) at 0.15 mg/ml concentration, sterile filtered (0.22 μm, Merck Millipore) and aliquoted at −20° C. Resazurin reagent (Sigma-Aldrich) was added at a final concentration of 25 μg/ml. After 2 hours incubation at 37° C. 5% CO2 fluorescence (530 nm excitation/580 nm emission) was recorded on a multimode microplate reader (Cytofluor4000, PerSeptive Biosytems). Viability was calculated with relation to untreated control cells and blank wells containing media without cells. IC50 values (50% inhibiting concentration) were calculated by GraphPad Prism® 5 (La Jolla, Calif., USA).
In general terms: Alamar Blue is a resazurin reagent that responds to reducing activity.

In series [2] the test system is human breast adenocarcinoma cell line, MCF-7. The experiment in a line: resazurin viability assay, 72 h (Table 1). Type of series: cell-based. The following applies: MCF7, 72h incubation, 156 nM-100 μM.
From the text: as §1, §2

The test system of series [3] is human promyelocytic leukemia, HL-60 cells. The series can be described thus: resazurin viability assay, 72 h (Table 1). The format is cell-based. To be noted: 72h incubation, 156 nM-100 μM.
From the text: as §1, §2

Structures are written as SMILES.

Melting point and IC50 data for 16 compounds are collected here from patent US20220064167A1, “IMIDAZO-PYRAZOLE CARBOXAMIDE DERIVATIVES AS ANTICANCER AGENTS AND THE SYNTHESIS THEREOF” (AVIDIN KFT., priority 2018, published 2022).

By melting point is commonly meant the temperature of the solid-liquid transition. The IC50 is the midpoint of a concentration-inhibition curve. Lower therefore signals higher potency.

The compound `CNC(=O)c1cnn2c(NC(C)(C)CC(C)(C)C)c(C(C)(C)C)[nH]c12` [Example 28, 2-(Tert-butyl)-N-methyl-3-((2,4,4-trimethylpentan-2-yl)amino)-1H-imidazo[1,2-b]pyrazole-7-carboxamide] showed a melting point of 173 to 174 °C. Besides, the IC50 in series [1] was determined as 4.66 µM. Half-maximal inhibition in series [2] (IC50) required 4.46 µM. Further, in series [3], half-maximal inhibition (IC50) required 1.52 µM.
`CCCCNC(=O)c1cnn2c(NC(C)(C)CC(C)(C)C)c(C(C)(C)C)[nH]c12` [Example 29, 2-(Tert-butyl)-N-butyl-3-((2,4,4-trimethylpentan-2-yl)amino)-1H-imidazo[1,2-b]pyrazole-7-carboxamide] registered a melting point of 147 to 148 °C. Besides, in series [1], the IC50 is greater than 50 µM. Besides, 34.1 µM corresponded to half-maximal inhibition in series [2] (IC50). Also, the IC50 in series [3] amounted to 2.72 µM.
With `CC(C)(C)CC(C)(C)Nc1c(C(C)(C)C)[nH]c2c(C(=O)NC3CC3)cnn12` [Example 31, 2-(Tert-butyl)-N-cyclopropyl-3-((2,4,4-trimethylpentan-2-yl)amino)-1H-imidazo[1,2-b]pyrazole-7-carboxamide], the melting point worked out at 161 °C. Besides, in series [1], half-maximal inhibition (IC50) required 4.01 µM. The same compound showed an IC50 in series [2] of 1.69 µM. Moreover, the IC50 in series [3] came out at 1.61 µM.
Consider `CC(C)(C)CC(C)(C)Nc1c(C(C)(C)C)[nH]c2c(C(=O)NCc3ccccc3)cnn12` [Example 33, N-Benzyl-2-(tert-butyl)-3-((2,4,4-trimethylpentan-2-yl)amino)-1H-imidazo[1,2-b]pyrazole-7-carboxamide], for which the melting point fell in the range of 118 to 119 °C. For the same compound, inhibition in series [1] was half-maximal at 9.31 µM (IC50). For the same compound, the IC50 in series [2] was found to be 8.57 µM. Also, the half-maximal inhibitory concentration (IC50) in series [3] was determined as 6.26 µM.
For the compound `CC(C)(C)CC(C)(C)Nc1c(C(C)(C)C)[nH]c2c(C(=O)Nc3ccccc3)cnn12` [Example 34, 2-(Tert-butyl)-N-phenyl-3-((2,4,4-trimethylpentan-2-yl)amino)-1H-imidazo[1,2-b]pyrazole-7-carboxamide], the melting point is 147 °C. Moreover, in series [1], the half-maximal inhibitory concentration (IC50) is 28.5 µM. Besides, the midpoint of inhibition in series [2], the IC50, lay at 18.3 µM. Moreover, in series [3], the IC50 worked out at 0.604 µM.
In the case of `CC(C)(C)CC(C)(C)Nc1c(C(C)(C)C)[nH]c2c(C(=O)Nc3ccccn3)cnn12` [Example 35, 2-(Tert-butyl)-N-(pyridin-2-yl)-3-((2,4,4-trimethylpentan-2-yl)amino)-1H-imidazo[1,2-b]pyrazole-7-carboxamide], the melting point fell in the range of 144 to 145 °C. For the same compound, the midpoint of inhibition in series [1], the IC50, lay at 6.91 µM. Besides, 8.35 µM corresponded to half-maximal inhibition in series [2] (IC50). In series [3], this compound yielded an IC50 of 4.38 µM.
As to `CC(C)(C)CC(C)(C)Nc1c(C(C)(C)C)[nH]c2c(C(=O)Nc3cccnc3)cnn12` [Example 36, 2-(Tert-butyl)-N-(pyridin-3-yl)-3-((2,4,4-trimethylpentan-2-yl)amino)-1H-imidazo[1,2-b]pyrazole-7-carboxamide], the melting point fell in the range of 186 to 187 °C. This compound had an IC50 in series [1] of 2.59 µM. The compound also gave a half-inhibitory concentration (IC50) in series [2] of 1.9 µM. In addition, in series [3], the IC50 was determined as 0.934 µM.
`CC(C)(C)CC(C)(C)Nc1c(C(C)(C)C)[nH]c2c(C(=O)Nc3ccncc3)cnn12` [Example 37, 2-(Tert-butyl)-N-(pyridin-4-yl)-3-((2,4,4-trimethylpentan-2-yl)amino)-1H-imidazo[1,2-b]pyrazole-7-carboxamide] gave a melting point of 185 to 186 °C. The compound further gave an IC50 in series [1] of 4.34 µM. Moreover, the concentration for half-maximal inhibition (IC50) in series [2] was 2.55 µM. The same compound had a concentration for half-maximal inhibition (IC50) in series [3] of 2.71 µM.
As for `CC(C)(C)CC(C)(C)Nc1c(C(C)(C)C)[nH]c2c(C(=O)Nc3nccs3)cnn12` [Example 38, 2-(Tert-butyl)-N-(thiazol-2-yl)-3-((2,4,4-trimethylpentan-2-yl)amino)-1H-imidazo[1,2-b]pyrazole-7-carboxamide], the melting point is 125 to 127 °C. For the same compound, the IC50 in series [1] turned out to be 2.41 µM. Besides, the IC50 in series [2] was determined as 1.95 µM. The compound further showed a half-maximal inhibitory concentration (IC50) in series [3] of 2.86 µM.
Compound `CC(C)(C)CC(C)(C)Nc1c(C(C)(C)C)[nH]c2c(C(=O)Nc3ccon3)cnn12` [Example 39, 2-(Tert-butyl)-N-(isoxazol-3-yl)-3-((2,4,4-trimethylpentan-2-yl)amino)-1H-imidazo[1,2-b]pyrazole-7-carboxamide] had a melting point of 185 to 186 °C. Further, the midpoint of inhibition in series [1], the IC50, lay at 2.85 µM. Moreover, in series [2], the IC50 is 1.7 µM. For the same compound, the IC50 in series [3] was 0.935 µM.
Turning to `Cc1ccccc1NC(=O)c1cnn2c(NC(C)(C)CC(C)(C)C)c(C(C)(C)C)[nH]c12` [Example 40, 2-(Tert-butyl)-N-(o-tolyl)-3-((2,4,4-trimethylpentan-2-yl)amino)-1H-imidazo[1,2-b]pyrazole-7-carboxamide], the melting point was found to be 172 °C. The IC50 in series [1] was greater than 50 µM. For the same compound, the IC50 in series [2] stood at 30.6 µM. Besides, the IC50 in series [3] turned out to be 2.12 µM.
`COc1ccc(NC(=O)c2cnn3c(NC(C)(C)CC(C)(C)C)c(C(C)(C)C)[nH]c23)cc1` [Example 43, 2-(Tert-butyl)-N-(4-methoxyphenyl)-3-((2,4,4-trimethylpentan-2-yl)amino)-1H-imidazo[1,2-b]pyrazole-7-carboxamide] had a melting point of 187 to 188 °C. For the same compound, the IC50 in series [1] is 24.7 µM. Further, in series [2], the IC50 stood at 17.8 µM. The same compound gave an IC50 in series [3] of 1.11 µM.
As for `CC(C)(C)CC(C)(C)Nc1c(C(C)(C)C)[nH]c2c(C(=O)Nc3cccc(C(F)(F)F)c3)cnn12` [Example 46, 2-(Tert-butyl)-N-(3-(trifluoromethyl)phenyl)-3-((2,4,4-trimethylpentan-2-yl)amino)-1H-imidazo[1,2-b]pyrazole-7-carboxamide], the melting point is 180 °C. In series [1], this compound displayed an IC50 of 35.4 µM. Moreover, the IC50 in series [2] is greater than 50 µM. The same compound registered an IC50 in series [3] of 11.4 µM.
The compound `CC(C)(C)CC(C)(C)Nc1c(C(C)(C)C)[nH]c2c(C(=O)Nc3ccc(C(F)(F)F)cc3)cnn12` [Example 47, 2-(Tert-butyl)-N-(4-(trifluoromethyl)phenyl)-3-((2,4,4-trimethylpentan-2-yl)amino)-1H-imidazo[1,2-b]pyrazole-7-carboxamide] gave a melting point of 155 to 156 °C. In series [1], this compound returned an IC50 greater than 50 µM. Moreover, the 50% inhibitory concentration (IC50) in series [2] was determined as 29 µM. The compound further yielded an IC50 in series [3] greater than 50 µM.
In turn, `CC(C)(C)CC(C)(C)Nc1c(C(C)(C)C)[nH]c2c(C(=O)Nc3ccccc3F)cnn12` [Example 48, 2-(Tert-butyl)-N-(2-fluorophenyl)-3-((2,4,4-trimethylpentan-2-yl)amino)-1H-imidazo[1,2-b]pyrazole-7-carboxamide] gave a melting point of 153 to 154 °C. In series [1], the half-maximal inhibitory concentration (IC50) was greater than 50 µM. This compound gave an IC50 in series [2] greater than 50 µM. Further, the midpoint of inhibition in series [3], the IC50, lay at 2.04 µM.
Compound `CC(C)(C)CC(C)(C)Nc1c(C(C)(C)C)[nH]c2c(C(=O)Nc3cccc(F)c3)cnn12` [Example 49, 2-(Tert-butyl)-N-(3-fluorophenyl)-3-((2,4,4-trimethylpentan-2-yl)amino)-1H-imidazo[1,2-b]pyrazole-7-carboxamide] came in with a melting point of 159 °C. In series [1], the IC50 came to 23.5 µM. Besides, the IC50 in series [2] is 17.3 µM. The compound further had an IC50 in series [3] of 4.47 µM.
